These are literature values, as cited in patent publication US8673971B2, “Derivatives of 4-nerolidylcatechol, pharmaceutical compositions comprising them and process for producing the same” (Instituto Nacional de Pesquisa de Amazonia INPA, priority 2007, dated 2014).

The conditions of data set [1]: tests based on co-oxidation of substrate (β-carotene, linoleic acid); greater than α-tocoferol.

As for `C=CC(C)(CCC=C(C)CCC=C(C)C)c1ccc(O)c(O)c1` (centres unmarked) [4-nerolidylcatechol], the water solubility result is “low water solubility”. Also, the “in vitro antioxidant activity relative to α-tocoferol” value in data set [1] is reported as 20 times.
